Measurements as given in ChEMBL document CHEMBL1201862, “PubChem BioAssay data set” (2004).
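48-hour exposure; five concentrations; linearly interpolated endpoints. GI50 is the concentration that inhibits growth by half.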 Activity calls are given as the source filed them. Rule as the data show it: active = GI50 up to about 1.1 µM and inactive = higher.

Assays:
Assay in all cases: DTP human tumour cell line panel, 48 h
A549 = system: A549
EKVX = system: EKVX
HOP-62 = system: HOP-62
HT-29 = system: HT-29
IGROV-1 = system: IGROV-1
Malme-3M = system: Malme-3M
NCI-H23 = system: NCI-H23
NCI-H460 = system: NCI-H460
NCI/ADR-RES = system: NCI/ADR-RES
OVCAR-8 = system: OVCAR-8
SF-539 = system: SF-539
SK-MEL-28 = system: SK-MEL-28
SN12C = system: SN12C
SNB-75 = system: SNB-75
U-251 = system: U-251
UACC-257 = system: UACC-257
UACC-62 = system: UACC-62
786-0 = system: 786-0
CAKI-1 = system: CAKI-1
SNB-19 = system: SNB-19

Measured: GI50

O=[N+]([O-])c1ccc(/C=C/c2ccc(/N=N/c3ccc(/C=C/c4ccc([N+](=O)[O-])cc4S(=O)(=O)O)c(S(=O)(=O)O)c3)cc2S(=O)(=O)O)c(S(=O)(=O)O)c1
inactive: A549 > 100 µM | EKVX > 100 µM | HOP-62 > 100 µM | HT-29 > 100 µM | IGROV-1 > 100 µM | Malme-3M > 100 µM | NCI-H23 > 100 µM | NCI-H460 > 100 µM | NCI/ADR-RES > 100 µM | OVCAR-8 > 100 µM | SF-539 > 100 µM | SK-MEL-28 > 100 µM | SN12C > 100 µM | SNB-75 61.8 µM | U-251 > 100 µM | UACC-257 > 100 µM | UACC-62 > 100 µM

Cc1cccc(-c2cc(=S)c3cc(N4CCCC4)ccc3[nH]2)c1
inactive: 786-0 > 100 µM | A549 > 100 µM | CAKI-1 > 100 µM | EKVX > 100 µM | HOP-62 > 100 µM | NCI/ADR-RES > 100 µM | SF-539 > 100 µM | SK-MEL-28 > 100 µM | SN12C > 100 µM | SNB-19 > 100 µM | SNB-75 > 100 µM | U-251 > 100 µM | UACC-257 > 100 µM | UACC-62 > 100 µM

c1csc(-c2ccsc2-c2ccsc2)c1
inactive: 786-0 97.3 µM | A549 43.1 µM | CAKI-1 > 100 µM | EKVX 53.8 µM | HOP-62 > 100 µM | HT-29 > 100 µM | IGROV-1 > 100 µM | NCI-H23 43.5 µM | NCI-H460 97.9 µM | NCI/ADR-RES 76 µM | OVCAR-8 91.2 µM | SF-539 > 100 µM | SK-MEL-28 > 100 µM | SN12C > 100 µM | SNB-75 > 100 µM | U-251 > 100 µM | UACC-257 > 100 µM | UACC-62 > 100 µM

CCCC1CCC(=C2C(=O)CCC2=O)O1 (stereo unspecified)
inactive: 786-0 > 100 µM | A549 > 100 µM | CAKI-1 > 100 µM | EKVX > 100 µM | HOP-62 > 100 µM | HT-29 > 100 µM | IGROV-1 > 100 µM | NCI-H23 > 100 µM | NCI-H460 > 100 µM | NCI/ADR-RES > 100 µM | OVCAR-8 > 100 µM | SF-539 > 100 µM | SK-MEL-28 > 100 µM | SN12C > 100 µM | SNB-19 > 100 µM | SNB-75 4.91 µM | U-251 > 100 µM | UACC-257 > 100 µM | UACC-62 > 100 µM

CSc1nc2c(ncn2C2OC(CO)C(O)C(O)C2O)c(=O)n1C (stereo unspecified)
inactive: A549 > 100 µM | EKVX > 100 µM | HOP-62 > 100 µM | HT-29 > 100 µM | IGROV-1 > 100 µM | Malme-3M > 100 µM | NCI-H23 > 100 µM | NCI-H460 > 100 µM | NCI/ADR-RES > 100 µM | OVCAR-8 > 100 µM | SF-539 > 100 µM | SK-MEL-28 > 100 µM | SN12C > 100 µM | SNB-19 > 100 µM | SNB-75 > 100 µM | U-251 > 100 µM | UACC-257 > 100 µM | UACC-62 > 100 µM

NNC(=O)c1c(SCc2ccccc2)nc2c3ccccc3ccn12
inactive: A549 23.4 µM | CAKI-1 15 µM | EKVX 19.5 µM | HOP-62 10.2 µM | HT-29 16.5 µM | IGROV-1 14.4 µM | NCI-H23 21.2 µM | NCI-H460 14.8 µM | NCI/ADR-RES 26.5 µM | OVCAR-8 30.5 µM | SF-539 15.9 µM | SK-MEL-28 18.1 µM | SN12C 17 µM | SNB-19 36.6 µM | U-251 17.7 µM | UACC-257 37.2 µM | UACC-62 10.2 µM

Cn1c2ccccc2n2c(=O)c3cc([N+](=O)[O-])ccc3c(C#N)c12
inactive: 786-0 22.3 µM | A549 > 100 µM | CAKI-1 > 10 µM | EKVX > 100 µM | HOP-62 27.5 µM | HT-29 > 100 µM | IGROV-1 > 100 µM | NCI-H23 > 100 µM | NCI-H460 > 100 µM | NCI/ADR-RES > 100 µM | OVCAR-8 > 100 µM | SF-539 50.4 µM | SK-MEL-28 > 100 µM | SNB-19 > 100 µM | SNB-75 56.2 µM | U-251 > 100 µM | UACC-257 > 100 µM | UACC-62 > 100 µM

COc1ccccc1CNCc1nc2ccccc2[nH]1
inactive: 786-0 > 100 µM | A549 > 100 µM | CAKI-1 > 100 µM | EKVX 92.9 µM | HOP-62 > 100 µM | HT-29 78.7 µM | IGROV-1 > 100 µM | NCI-H23 > 100 µM | NCI-H460 > 100 µM | NCI/ADR-RES > 100 µM | OVCAR-8 > 100 µM | SF-539 > 100 µM | SK-MEL-28 > 100 µM | SN12C > 100 µM | SNB-19 > 100 µM | SNB-75 > 100 µM | U-251 > 100 µM | UACC-257 > 100 µM | UACC-62 > 100 µM

CCOC(=O)CC[C@H](NC(=O)N[C@H](C)c1ccccc1)C(=O)OCC
inactive: 786-0 37.9 µM | A549 > 100 µM | CAKI-1 > 100 µM | EKVX > 100 µM | HOP-62 > 100 µM | HT-29 > 100 µM | IGROV-1 20.8 µM | NCI-H23 89.1 µM | NCI-H460 > 100 µM | NCI/ADR-RES 22.8 µM | OVCAR-8 > 100 µM | SF-539 14.7 µM | SK-MEL-28 20.9 µM | SN12C 40.6 µM | SNB-19 > 100 µM | U-251 39.8 µM | UACC-257 18.3 µM | UACC-62 16.1 µM

CC(C)=CC1CC(=[N+]=[N-])C(=O)C1(C)C (stereo unspecified)
inactive: 786-0 > 100 µM | A549 > 100 µM | CAKI-1 > 100 µM | EKVX > 100 µM | HOP-62 > 100 µM | HT-29 > 31.6 µM | IGROV-1 > 100 µM | Malme-3M > 100 µM | NCI-H23 > 100 µM | NCI-H460 99.5 µM | OVCAR-8 > 100 µM | SF-539 > 100 µM | SK-MEL-28 > 100 µM | SN12C > 100 µM | SNB-19 > 100 µM | SNB-75 > 46.7 µM | U-251 > 100 µM | UACC-257 > 100 µM | UACC-62 > 100 µM

COC(=O)c1c(-c2ccccc2)cc2c3cc(-c4ccccc4)c(C(=O)OC)n3c3ccccc3n12
inactive: 786-0 > 100 µM | A549 > 100 µM | CAKI-1 > 100 µM | EKVX > 100 µM | HOP-62 > 100 µM | HT-29 > 100 µM | IGROV-1 > 100 µM | Malme-3M > 100 µM | NCI-H23 > 100 µM | NCI-H460 > 100 µM | OVCAR-8 > 100 µM | SF-539 > 100 µM | SK-MEL-28 > 100 µM | SN12C > 100 µM | SNB-19 > 100 µM | SNB-75 20.1 µM | U-251 > 100 µM | UACC-257 > 100 µM | UACC-62 > 100 µM
